# What was measured:
# [1] = system: bladder cancer cells; test: Cell cycle analysis by flow-cytometry 72 h post siRNA transfection; format: cell-based, human
# Method: Results were analyzed using Fisher test, *** p<0.001, * 0.01<p<0.05
# [2] = system: MGH-U3, KK47, J82 and RT112 cells; test: Cell viability after siRNA transfection (trypan blue count); format: cell-based, human; details: 50 nM siRNA, 72 hours after transfection
# Method: (§1) After transfection as described in the legend of FIG. 4, cells were treated with trypsin 72 hours after transfection, stained with trypan blue and viable cells were counted in triplicate, using a Malassez hematocytometer. Results are the means+/−SD of two independent experiments carried out in triplicate.
# (§2) In order to investigate the role of TYRO3 in cell growth and tumorigenic properties, TYRO3 expression was blocked using RNA interference technology or TYRO3 activity was inhibited using a blocking antibody directed against the extracellular domain of TYRO3 or a soluble receptor consisting of the recombinant extracellular domain of TYRO3 produced in bacteria. Two cell lines expressing TYRO3 (MGH-U3, KK47), two cell lines expressing both TYRO3 and GAS6 (J82, RT112) and one control breast cancer derived cell line presenting a very low TYRO3 expression level (MCF-7) were used. It was shown by western blot using an anti-phosphotyrosine antibody after TYRO3 immunoprecipitation that in each type of cell line (expressing or not GAS6), TYRO was activated (data not shown).
# [3] = system: TYRO3; test: Efficiency of TYRO3 silencing after siRNA transfection (mRNA and western-blot); format: cell-based, human; details: MGH-U3, KK47, J82 and RT112 cells; 50 nM siRNA; 72 hours after transfection
# Method: Cells were transfected with 50 nM siRNA (siRNA anti-TYRO3 (SEQ ID No. 1) or control siRNA (scramble, SEQ ID No. 2)) and the efficiency of TYRO3 silencing was assessed 72 hours after transfection by western-blot.
# [4] = system: MCF7 cells; test: Cell viability after siRNA transfection, control cell line with very low TYRO3 expression; format: cell-based, human
# Method: as §1, §2
# [5] = system: MGH-U3 xenografts; test: Growth of MGH-U3 xenografts, siRNA treatment; format: in vivo, athymic nude mice
# Method: Tumor-bearing mice were treated three times a week by intraperitoneal injection of 4 μg siRNA (control or TYRO3) (6 mice and 12 tumors per group) (The first injection corresponds to day 0). Tumor volume variations are represented on the graph of FIG. 12A. (Wilcoxon rank sum test: *, 0.05<p<0.01, **, 0.01<p<0.001, ***, p<0.001) Inset are pictures of representative tumors observed at the end of the treatment. The upper line tumors are those of TYRO3 siRNA treated mice. The middle line tumors are those of control siRNA treated mice. The lower line tumors are those of PBS treated mice. Tumors were weighted at the end of the experiment (FIG. 12B).
# The role of this gene in bladder cancer cell growth in vivo was studied. J82 and MGH-U3 cells were implanted subcutaneously in athymic nude mice. Once tumors were established, mice were randomly selected for treatment with control or TYRO3-specific siRNAs. For J82 xenografts, two weeks after the beginning of treatment only three tumors out of 12 were still observed (FIGS. 11A and 11B). For MGH-U3 xenografts, after 21 days of treatment, tumor volume was 70% lower in mice treated with TYRO3 siRNA than in mice treated with control siRNA (Wilcoxon rank-sum test, p<0.001) (FIGS. 12A and 12B).
# [6] = system: TYRO3; test: TYRO3 mRNA levels in MGH-U3 xenografts by Q-RT-PCR; format: in vivo, athymic nude mice; details: 3 days after the last siRNA injection, Student's t-test p<0,001
# Text: FIG. 13 is a graph showing TYRO3 mRNA levels for MGH-U3 xenografts, 3 days after the last siRNA injection, divided by TBP (TATA binding protein) mRNA levels+/−SD in treated and control tumors, as assessed by Q-RT-PCR.
# [7] = system: MGH-U3, KK47, RT112 and J82 colonies; test: Anchorage-independent colony formation in soft agar; format: cell-based, human; details: 50 nM siRNA, two weeks
# Method: 2.10^4 50 nM siRNA-transfected cells in DMEM supplemented with 10% FCS and 0.3% agar, were added to triplicate wells containing medium and 0.8% agar on 12-well plates. The plates were incubated for two weeks and colonies with diameters greater than 50 μm were scored as positive, using a phase-contrast microscope equipped with a measuring grid. Results are the means+/−SD of two independent experiments carried out in triplicate.
# [8] = system: bladder cancer cells; test: TUNEL assay on transfected bladder cancer cells; format: cell-based, human; details: 50 nM siRNA; 72 hours after transfection
# Method: 3×10^4 cells per well were seeded on a glass slide in a 24-well plate and transfected with 50 nM siRNA. DNA fragmentation was evaluated 72 hours after transfection, using a TUNEL (deoxynucleotidyl transferase (Tdt)-mediated nick-end labeling) assay detection Kit (Roche Diagnostic, Meylan, France) according to the manufacturer's instructions. The inventors analyzed 600 cells under a light microscope, determining the proportion of labeled cells.
# [9] = siRNA treated xenografts, data not shown
substance,measurement,setting,value
TYRO3 siRNA: siRNA anti-TYRO3 comprising the sequence of SEQ ID No. 1 (GGUGUGCCAUUUUUCACAGTT; chemistry not given here),change in cell-cycle progression,[1],significant but low change
same,viable cells versus control siRNA,[2],fewer viable
same,inhibition of TYRO3 mRNA and protein levels,[3],80-90%
same,effect on viable cells,[4],no effect
same,tumor volume lower than in mice treated with control siRNA,"[5]; MGH-U3 xenografts, after 21 days of treatment, 4 μg siRNA intraperitoneal three times a week, p<0.001",70%
same,apoptosis in treated tumors (TUNNEL analysis),[5]; [9],increase apoptosis
same,histological difference between treated and control tumors,[5]; [9],No histological difference
same,TYRO3 mRNA levels in tumors,[6],significant decrease
same,viable colonies in soft agar assays,[7],fewer viable
same,apoptotic rate (TUNEL),[8],increased apoptotic rate
